pEC50: −log10 of the molar value.
Tests used:
[1] = target: T1, GABAB receptor (Mus musculus, UniProt Q80T41+Q9WV18); experiment: [35S]GTPγS binding test for PAM action, mouse brain cortical membrane; type: biochemical; settings: 100 μM GABA = 100%; for pEC50: concentration raising reaction rate from 20% with 0.3 μM GABA to 50%, mouse brain cortex membrane, read-out: Potency (PAM Potency of GABAB)
T1 construct: a mouse brain cortex membrane (4 μg); tissue Japan SLC, Inc. (ddY mice); host or cells: mouse brain cortex membrane
T1 sequence (Q9WV18 20-960): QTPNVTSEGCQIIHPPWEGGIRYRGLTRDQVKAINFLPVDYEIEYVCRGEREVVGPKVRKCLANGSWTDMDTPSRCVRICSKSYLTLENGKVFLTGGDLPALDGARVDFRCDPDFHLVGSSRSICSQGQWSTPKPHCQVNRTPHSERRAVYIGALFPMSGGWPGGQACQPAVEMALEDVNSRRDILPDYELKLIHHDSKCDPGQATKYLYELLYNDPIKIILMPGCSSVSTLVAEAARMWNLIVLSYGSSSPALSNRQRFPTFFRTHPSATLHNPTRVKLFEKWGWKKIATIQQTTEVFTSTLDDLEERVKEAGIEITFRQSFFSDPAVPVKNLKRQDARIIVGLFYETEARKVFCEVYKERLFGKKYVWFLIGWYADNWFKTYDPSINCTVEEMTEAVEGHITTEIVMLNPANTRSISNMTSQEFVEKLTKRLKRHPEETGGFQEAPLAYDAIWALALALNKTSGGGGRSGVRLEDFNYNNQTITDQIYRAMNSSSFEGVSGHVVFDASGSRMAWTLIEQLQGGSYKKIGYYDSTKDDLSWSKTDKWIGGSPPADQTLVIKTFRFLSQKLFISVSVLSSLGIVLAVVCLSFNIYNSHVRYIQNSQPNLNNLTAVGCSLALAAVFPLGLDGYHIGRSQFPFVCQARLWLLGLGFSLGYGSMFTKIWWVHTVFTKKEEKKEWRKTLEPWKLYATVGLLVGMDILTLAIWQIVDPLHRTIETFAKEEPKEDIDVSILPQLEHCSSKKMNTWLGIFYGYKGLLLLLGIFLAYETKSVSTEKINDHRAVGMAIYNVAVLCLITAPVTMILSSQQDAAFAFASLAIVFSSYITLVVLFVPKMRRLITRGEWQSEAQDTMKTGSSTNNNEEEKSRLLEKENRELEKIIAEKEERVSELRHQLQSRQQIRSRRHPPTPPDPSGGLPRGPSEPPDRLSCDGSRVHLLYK
T1 sequence (Q80T41 41-940): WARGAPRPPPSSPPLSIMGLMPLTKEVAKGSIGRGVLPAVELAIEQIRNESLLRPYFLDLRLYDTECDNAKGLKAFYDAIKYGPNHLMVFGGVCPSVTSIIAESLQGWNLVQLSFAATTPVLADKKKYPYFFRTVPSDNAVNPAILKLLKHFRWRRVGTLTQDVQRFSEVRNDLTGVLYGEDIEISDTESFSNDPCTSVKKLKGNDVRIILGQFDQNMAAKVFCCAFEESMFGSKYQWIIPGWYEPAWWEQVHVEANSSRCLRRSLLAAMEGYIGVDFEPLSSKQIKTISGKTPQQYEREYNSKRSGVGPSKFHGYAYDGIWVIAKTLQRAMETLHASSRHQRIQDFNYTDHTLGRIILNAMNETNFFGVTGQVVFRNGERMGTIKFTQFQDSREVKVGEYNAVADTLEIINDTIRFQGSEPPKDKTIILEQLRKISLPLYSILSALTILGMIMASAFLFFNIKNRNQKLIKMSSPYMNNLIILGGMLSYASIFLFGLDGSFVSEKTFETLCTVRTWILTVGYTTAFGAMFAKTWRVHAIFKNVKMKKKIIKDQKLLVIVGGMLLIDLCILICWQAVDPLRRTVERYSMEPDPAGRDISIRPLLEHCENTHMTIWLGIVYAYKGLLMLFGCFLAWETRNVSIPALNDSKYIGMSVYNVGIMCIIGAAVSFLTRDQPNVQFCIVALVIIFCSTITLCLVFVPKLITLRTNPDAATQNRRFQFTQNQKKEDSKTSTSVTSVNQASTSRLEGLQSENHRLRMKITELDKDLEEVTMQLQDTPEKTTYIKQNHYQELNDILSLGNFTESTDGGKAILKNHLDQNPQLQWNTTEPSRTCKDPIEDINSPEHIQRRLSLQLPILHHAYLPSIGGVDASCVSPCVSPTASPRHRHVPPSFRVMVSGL
Procedure: The function of the GABAB receptor of the compound of the present invention was evaluated using a [^35S] GTPγS binding test. This method is used for the detection of the PAM action of the compound on the GABAB receptor (Journal of Pharmacology and Experimental Therapeutics, 2003, vol. 307(1), p. 322-330; and Molecular Pharmacology, 2001, vol. 60(5), p. 963-971).
The mouse brain cortical membrane was prepared with reference to a method for preparing a rat brain membrane (European Journal of Pharmacology, 1990, vol. 187 (1), p. 27-38).
The cortex (about 30 g) was cut out of the brains of 90 ddY mice (Japan SLC, Inc.). An A buffer was added to the cortex (cortex/A buffer=about 1:3 (wt/vol)), and homogenized with a glass Teflon-lined homogenizer (Teflon: registered trademark) on ice. The homogenate was centrifuged (750 g, 10 min, 4° C.) and a supernatant was then obtained. An A buffer (90 mL) was added to pellets and homogenized on ice, and a supernatant (750 g, 10 min, 4° C.) was then obtained. By repeating this operation, the supernatant was collected.
The supernatant was centrifuged (18000 g, 15 min, 4° C.). Ultrapure water (54 mL) was added to the pellets, left to stand for 30 min on ice, and then centrifuged (39000 g, 20 min, 4° C.). The pellets were suspended in a KH buffer (54 mL), repeatedly frozen and thawed, and centrifuged (18000 g, 15 min) at 4° C. The buffer was added to the pellets and then frozen and thawed, and this operation was repeated until the centrifugation. By a Bradford method using a protein assay (Protein assay CBB solution; Nacalai Tesque, Inc.), a KH buffer suspension of the pellet was prepared at a protein concentration of 10 mg/mL.
The PAM action of the GABAB receptor in the mouse brain cortex of a test drug was evaluated. To each of wells of a 96-well microplate, a test drug diluted with a B buffer at each concentration (3 nM to 30 μM), a mouse brain cortex membrane (4 μg), [^35S] GTPγS (final concentration of 0.34 nM, Muromachi Yakuhin Co., Ltd.; Institute of Isotopes Co., Ltd.), GABA (final concentration of 0.3 μM; Sigma) were added in this order, followed by standing at room temperature for 1 hour. With a harvester (Filtermate, Perkin-Elmer, Inc.), the suspension was suction-filtered through a glass filter (UniFilter 96-well GF/B filter plates, Perkin-Elmer, Inc.). The glass filter was washed with a C buffer that had been ice-cooled. After drying the glass filter, a liquid scintillation cocktail (50 μL, MicroScinti-PS; PerkinElmer, Inc.) was added to each well. The amount of [^35S] GTPγS bound to the membrane was measured on a plate reader (TopCount, PerkinElmer, Inc.).
The maximum reaction rate of 100 μM GABA was taken as 100%. […] At a time when the test drug was not added, the concentration of the test drug that increased the reaction rate from 20% with 0.3 μM GABA to 50% was taken as a PAM Potency (μM) of the GABAB of the test drug. In the presence of 0.3 μM GABA, the maximum reaction rate of the effect on the GABAB receptor when the test drug was administered up to maximum 30 μM was taken as a PAM Efficacy (%) of the GABAB of the test drug.
The Potency and Efficacy of several representative Example Compounds of the present invention are shown in Table below (In the Table, Ex represents Example Compound No. The “Potency” represents the PAM Potency of GABAB of the test drug, and the “Efficacy” represents PAM Efficacy (%) of GABAB of the test drug. These shall apply hereinafter).

[2] = test system: pressure pain threshold in the gastrocnemius muscle; experiment: Pressure pain threshold in model with reserpine-induced muscle pain; type: in vivo; settings: oral, measured after 30 minutes; male SD rat; reserpine 1 mg/kg s.c. for 3 days
Procedure: This model is a model that mimics the pathological conditions of fibromyalgia. This test was carried out on the basis of the description in Pain, 2009, vol. 146, p. 26-33. Reserpine (1 mg/kg) was subcutaneously administered to the male SD rat (Japan SLC, Inc.)) once per day for 3 days. After 5 days, the solvent or the test drug was orally administered. After 30 minutes, the pressure pain threshold value was measured using a Randall-Selitto instrument (Muromachi Kikai Co., Ltd.) in the gastrocnemius muscle. The significant difference assay between the solvent group and the group administered with the test drug was carried out by comparison between the groups using a Student's t-test or a Dunnett's multiple comparison test. Here, the value obtained by administering a solvent to a normal rat not administered with reserpine was taken as 100%, and the value of the reserpine group administered with a solvent was taken as 0%. In each assay, if p<0.05 was satisfied, it was determined that there was a significant difference.

Row | SMILES | pEC50 [1] | Efficacy (PAM Efficacy of GABAB) ([1]; maximum reaction rate in presence of 0.3 μM GABA, test drug up to 30 μM) [%] | Emax ([1]; maximum reaction rate in presence of 0.3 μM GABA, test drug up to 30 μM, read-out: Efficacy (PAM Efficacy of GABAB)) [%] | MED [2] [mg/kg]
1 | Cc1nc(CN2CC[C@@H](O)[C@H](O)C2)c2cc(C3CCC(C)(C)CC3)sc2n1 (single isomer, unassigned) [Ex31, trans-1-{[6-(4,4-dimethylcyclohexyl)-2-methylthieno[2,3-d]pyrimidin-4-yl]methyl}piperidine-3,4-diol] | 6.96 | 300 | – | –
2 | Cc1nc(CN2CCS(=O)(=O)CC2)c2cc(C3CCC(C)(C)CC3)sc2n1 [Ex2, 6-(4,4-dimethylcyclohexyl)-4-[(1,1-dioxidothiomorpholin-4-yl)methyl]-2-methylthieno[2,3-d]pyrimidine] | 6.96 | – | 207 | 0.03

Source: patent US9051339B2, “Sulfur-containing bicyclic compound” (Astellas Pharma Inc., priority 2013, dated 2015)
